# From patent US11547685B2, “Using probenecid to treat polycystic kidney disease” (Mayo Foundation for Medical Education and Research, priority 2017, dated 2023)
# Several values for one entry are separate records, joined by “and”; a condition that tells them apart may be missing. Equal entries are not always repeated. Entries after “also recorded” stand apart in the source; their conditions may differ.
# Columns and labels:
# [1] = tested on: Pkd1^RC/RC PKD mouse model; assay: PKD mouse model Pkd1RC/RC, kidney weight/body weight; type: in vivo; conditions: Pkd1^RC/RC mice, 0.03 mg in 100 mg of chow, treated from age 4 weeks to 12 weeks
# Experimental: The PKD mouse model, Pkd1^RC/RC, was used in this experiment. Probenecid (0.03 mg in 100 mg of chow), tolvaptan (0.03 mg in 100 mg of chow), or the combination of tolvaptan and probenecid were mixed with the food. […] The treatment started from age 4 weeks to 12 weeks. Mice were sacrificed, and the kidney weight (KW) was measured then standardized to body weight (BW). KW/BW ratio was an established method to report an effect of therapy in ADPKD mouse models.
# mIMCD3 cells [2] = assay: Time-lapse imaging of cytoplasmic calcium with Gcamp6s biosensor; type: cell-based, mouse; conditions: probenecid 1000 μM, mIMCD3 cells stably transfected with Gcamps6s
# Experimental: FIG. 1B. Probenecid increases intracytoplasmic calcium in mouse inner medullary collecting duct cells (mIMCD3). mIMCD3 cells were stably transfected with […] (cytoplasmic calcium genetically encoded biosensor) and grown on 35 mm glass bottom dish for at least 5 days post confluence then imaged under confocal microscopy every 3 seconds. Probenecid (1000 μM) was added to the medium at 10.5 minutes as noted by the blue bar. Fluorescence changes of a region of interest (ROI) in each cell are analyzed in Zen software and reported as a ratio of fluorescence over baseline fluorescence of each ROI (F/F0). An increase in F/F0 indicates relative increase in cytoplasmic calcium. Probenecid increased cytoplasmic calcium by 4-6 folds compared to baseline calcium. Two representative images at baseline and at peak increase of cytoplasmic calcium are shown. Mouse inner medullary collecting duct immortalized cell lines were used (mIMCD3): wild type (WT) or with a knockout of Pkd1 (Pkd^1-/-) or Pkd2 (Pkd^2-/-). WT cells were transfected with GCamp6s by electroporation (Bio Rad Gene pulser Xcell). […] Time lapses (every 3 seconds) were captured on Zeiss confocal microscope (LSM-780) and analyzed on Zeiss Zen Pro software. […] Fluorescence changes of a region of interest (ROI) in each cell were analyzed in Zen software and reported as a ratio of fluorescence over baseline fluorescence of each ROI (F/F0). […]
# mIMCD3 cells [3] = assay: Three dimensional (3D) cystogenesis assay, forskolin-induced; type: cell-based, mouse; conditions: for reduction in cyst size: 5 days
# Experimental: FIG. 2. Probenecid reduces forskolin-induced cystogenesis. mIMCD3 cells were grown in 3D matrigel-based extracellular matrix system and incubated with defined medium (control)+/−forskolin (10 μM) and probenecid (500 μM and 1000 μM) for 5 days. Cysts were imaged using an inverted phase microscope, and cyst size was quantified by measuring cyst diameter using Image J software and reported as cyst surface area (μm^2). Forskolin induced cystogenesis in wild type. […] FIG. 3. Probenecid reduces forskolin induced in vitro cystogenesis. As described in FIG. 3, cells were grown in matrigel based system for 5 days. All four groups shown were stimulated with 10 μM of forskolin. Different doses of probenecid were compared. A dose effect was seen as higher dose of probenecid were more efficacious in reducing cyst growth when stimulated with forskolin. […] 3D matrix was prepared by mixing 1:1 matrigel with defined medium (DMEM, 25 μg/L EGF, 5 μg/mL insulin, 5 μg/mL transferrin, 5 ng/mL selenium, penicillin, streptomycin, 5×10^−12 M triiodothyronine, and 5×10^−8 M hydrocortisone). Cells were mixed with the extracellular matrix and grown in 96-wells plate (8000-10000 cells per well). The desired drug concentration (forskolin 10 μM, probenecid 500-1000 μM) was added to the medium and changed on a daily basis. Images of the wells were taken daily by an inverted phase contrast microscope. Images from day 5 were analyzed using Image J software. Cyst surface was calculated using cyst diameter. mIMCD3 cells were grown in three dimensional matrix-based extracellular matrix. When stimulated with forskolin, these cells grew to form multiple cysts. […] The cyst reduction may be due to inhibition of cell proliferation, inhibition of chloride driven fluid secretion, or both.
# mIMCD3 cells [4] = assay: cAMP ELISA assay; type: cell-based, mouse
# Experimental: FIG. 4. Probenecid enhances the intracellular accumulation of cAMP generated in response to forskolin. Wild type mIMCD3 cells were grown in 6 wells plate to confluence for at least 5 days then treated with either forskolin (10 μM) alone, probenecid alone (500 μM; PB 500), or forskolin (FSK) with probenecid (100 μM, PB100; 250 μM, PB250; and 500 μM, PB500). cAMP was measured by ELISA assay (pmol/mg of protein). […] Cells were grown in 6-wells culture dishes and incubated for at least 5 days post confluence. Cells were collected then homogenized in 0.1 M HCl. The protein concentration was measured by using BCA Protein Assay Kit. After centrifugation, the supernatant was further diluted in 0.1 M HCl. cAMP content was assessed by enzyme-linked immunosorbent assay. The results were expressed in picomoles per milligram of protein. Probenecid inhibited MRP1 mediated efflux of cAMP.
# mIMCD3 cells [5] = assay: Proliferation assay (Incucyte confluence); type: cell-based, mouse; conditions: 7 days
# Experimental: FIG. 5. Probenecid inhibits proliferation in mICMD3 cells. mIMCD3 cells were grown in 96 wells plate (2500 […]) for 7 days and imaged every 4 hours in an incubator-based imaging system (Incucyte). Confluence was measured at each time point. Cells were treated with defined medium (control), forskolin (FSK) 10 μM, or probenecid (PB) 500 μM and 1000 μM. Control and forskolin (FSK 10 μM) groups reached confluence faster when compared to probenecid alone or probenecid with forskolin. […] Cells were seeded in 96 wells plate (2500 cells/well) and grown for 7 days. Images were taken by an incubator-based microscope (Incucyte) every 4 hours and analyzed for confluence. Probenecid inhibited proliferation in a dose dependent manner. Cells were grown and imaged for 7 days in an incubator-based imaging system (IncuCyte) and analyzed for confluence.
# embryonic kidneys = assay: Forskolin-induced cystogenesis in cultured embryonic kidneys; conditions: E13.5 kidneys, forskolin-stimulated, probenecid 500 μM, day 5
# Experimental: FIG. 6 contains photographs showing that probenecid (500 μM) dramatically reduces cystogenesis in embryonic kidneys. Embryonic kidneys were harvested at E13.5 (embryos were 13-14 days old in utero). These kidneys were harvested and cultured on filters and stimulated with forskolin to induce cysts.
smiles,measurement,setting,value
Cc1ccccc1C(=O)Nc1ccc(C(=O)N2CCCC(O)c3cc(Cl)ccc32)c(C)c1 (stereo not drawn) [tolvaptan],mean KW/BW ratio,[1],2.07% (±0.42)
"CCCN(CCC)S(=O)(=O)c1ccc(C(=O)O)cc1 [probenecid, 4-(dipropyl-sulfamoyl) benzoic acid]",increase in cytoplasmic calcium (F/F0) compared to baseline calcium,mIMCD3 cells [2],4-6 fold and 4- to 6 fold
same,reduction in cyst size,mIMCD3 cells [3]; probenecid 500 μM with forskolin 10 μM,68.4%
same,reduction in cyst size,mIMCD3 cells [3]; probenecid 1000 μM with forskolin 10 μM,82.6%
same,reduction of cystic burden in 3D in vitro cystogenesis assay,mIMCD3 cells [3]; summary statement,more than 80%
same,cystogenesis with probenecid alone,mIMCD3 cells [3]; without forskolin,did not induce any cystogenesis
same,"intracellular cAMP, probenecid combined with forskolin versus forskolin alone","mIMCD3 cells [4]; wild type mIMCD3, forskolin 10 μM plus probenecid 100, 250, 500 μM",increased cAMP levels in a dose dependent fashion
same,"intracellular cAMP, probenecid alone","mIMCD3 cells [4]; wild type mIMCD3, probenecid 500 μM, no forskolin",did not increase cAMP
same,proliferation (confluence),"mIMCD3 cells [5]; Pkd2 null mIMCD3, probenecid 1000 μM alone",most completely inhibited proliferation
same,proliferation (confluence),"mIMCD3 cells [5]; wild type mIMCD3, probenecid 500 and 1000 μM",significantly inhibited proliferation
same,cyst formation in embryonic kidney culture,embryonic kidneys,significantly inhibited; also recorded: almost completely prevents cyst formation
same,mean KW/BW ratio,[1],2.56% (±0.42)
